According to article PMC3961306, “Comparison of the Cancer Gene Targeting and Biochemical Selectivities of All Targeted Kinase Inhibitors Approved for Clinical Use” (PLoS ONE, 2014):

Tests used:
Experiment in all cases: Kinase profiling in a biochemical assay panel (mobility shift assays and ELISA), %-inhibition at 1 μM; selectivity entropy
[1] = biological target: T1, panel of more than 300 wild-type and mutant kinases (313 kinase panel) (Homo sapiens, UniProt O15146); conditions: kinase MUSK; 1 μM
T1 sequence (O15146 24-869): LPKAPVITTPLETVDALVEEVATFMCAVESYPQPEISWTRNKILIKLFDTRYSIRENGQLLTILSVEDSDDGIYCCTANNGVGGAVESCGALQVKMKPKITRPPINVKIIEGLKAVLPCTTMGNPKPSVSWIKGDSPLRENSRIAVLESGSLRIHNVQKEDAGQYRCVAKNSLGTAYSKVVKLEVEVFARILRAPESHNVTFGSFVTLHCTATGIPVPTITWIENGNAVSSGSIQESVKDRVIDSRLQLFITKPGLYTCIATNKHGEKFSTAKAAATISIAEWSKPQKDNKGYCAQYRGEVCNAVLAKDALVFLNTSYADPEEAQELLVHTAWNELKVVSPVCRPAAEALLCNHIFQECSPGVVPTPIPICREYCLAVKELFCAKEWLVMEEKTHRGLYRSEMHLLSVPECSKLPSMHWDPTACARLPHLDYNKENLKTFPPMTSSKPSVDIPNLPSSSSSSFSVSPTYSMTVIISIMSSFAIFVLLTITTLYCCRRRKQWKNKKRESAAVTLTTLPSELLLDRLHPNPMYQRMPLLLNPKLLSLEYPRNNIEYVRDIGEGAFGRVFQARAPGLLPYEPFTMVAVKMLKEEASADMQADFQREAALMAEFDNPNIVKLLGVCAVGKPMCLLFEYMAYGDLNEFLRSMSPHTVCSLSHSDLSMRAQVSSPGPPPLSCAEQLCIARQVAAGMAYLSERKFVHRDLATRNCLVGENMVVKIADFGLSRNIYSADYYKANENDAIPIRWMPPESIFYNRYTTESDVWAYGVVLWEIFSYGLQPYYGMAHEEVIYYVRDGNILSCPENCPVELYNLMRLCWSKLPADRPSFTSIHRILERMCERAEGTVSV

[2] = biological target: panel of more than 300 wild-type and mutant kinases (313 kinase panel) (Homo sapiens, UniProt P06213); conditions: kinase INSR; compound at 1 μM
[3] = biological target: panel of more than 300 wild-type and mutant kinases (313 kinase panel) (Homo sapiens, UniProt P10721, D816V); conditions: kinase KIT(D816V); compound at 1 μM
[4] = biological target: panel of more than 300 wild-type and mutant kinases (313 kinase panel) (Homo sapiens, UniProt P16234); conditions: kinase PDGFRα; 1 μM
[5] = biological target: panel of more than 300 wild-type and mutant kinases (313 kinase panel) (Homo sapiens, UniProt P19525); conditions: kinase PKR; 1 μM
[6] = biological target: panel of more than 300 wild-type and mutant kinases (313 kinase panel) (Homo sapiens, UniProt P22607); conditions: kinase FGFR3; compound at 1 μM
[7] = biological target: panel of more than 300 wild-type and mutant kinases (313 kinase panel) (Homo sapiens, UniProt P49137); conditions: kinase MAPKAPK2; compound at 1 μM
[8] = biological target: panel of more than 300 wild-type and mutant kinases (313 kinase panel) (Homo sapiens, UniProt Q86Z02); conditions: kinase HIPK1; compound at 1 μM
[9] = biological target: T2, panel of more than 300 wild-type and mutant kinases (313 kinase panel) (Homo sapiens, UniProt Q96KB5); conditions: kinase PBK; 1 μM
T2 sequence (Q96KB5 1-322): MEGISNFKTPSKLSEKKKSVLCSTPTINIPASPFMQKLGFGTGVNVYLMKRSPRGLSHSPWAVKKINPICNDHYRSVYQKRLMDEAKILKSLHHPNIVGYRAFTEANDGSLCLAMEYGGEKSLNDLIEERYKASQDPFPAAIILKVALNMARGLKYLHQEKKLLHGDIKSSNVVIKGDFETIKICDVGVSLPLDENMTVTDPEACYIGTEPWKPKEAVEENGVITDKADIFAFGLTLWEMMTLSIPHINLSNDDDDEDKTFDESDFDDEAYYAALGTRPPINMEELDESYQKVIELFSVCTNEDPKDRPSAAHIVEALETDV

[10] = biological target: panel of more than 300 wild-type and mutant kinases (313 kinase panel) (Homo sapiens, UniProt Q9H2G2); conditions: kinase SLK; 1 μM

## CO[C@H]1C[C@@H]2CC[C@@H](C)[C@@](O)(O2)C(=O)C(=O)N2CCCC[C@H]2C(=O)O[C@H]([C@H](C)C[C@@H]2CC[C@@H](OC(=O)C(C)(CO)CO)[C@H](OC)C2)CC(=O)[C@H](C)/C=C(\C)[C@@H](O)[C@@H](OC)C(=O)[C@H](C)C[C@H](C)/C=C/C=C/C=C/1C [temsirolimus]
[1]
  %-inhibition of MUSK: -9%
[2]
  %-inhibition of INSR: -4%
[3]
  %-inhibition of KIT(D816V): -2.12%
[4]
  %-inhibition of PDGFRα: 3.45%
[5]
  %-inhibition of PKR: -14%
[6]
  %-inhibition of FGFR3: -5%
[7]
  %-inhibition of MAPKAPK2: -17%
[8]
  %-inhibition of HIPK1: -0.101%
[9]
  %-inhibition of PBK: -9%
[10]
  %-inhibition of SLK: -4%

## CC(=O)Nc1cccc(-n2c(=O)n(C3CC3)c(=O)c3c(Nc4ccc(I)cc4F)n(C)c(=O)c(C)c32)c1 [trametinib]
[1]
  %-inhibition of MUSK: -0.929%
[2]
  %-inhibition of INSR: -30%
[3]
  %-inhibition of KIT(D816V): -4%
[4]
  %-inhibition of PDGFRα: 4.53%
[5]
  %-inhibition of PKR: 1.13%
[6]
  %-inhibition of FGFR3: -5.68%
[7]
  %-inhibition of MAPKAPK2: -0.335%
[8]
  %-inhibition of HIPK1: -3.71%
[9]
  %-inhibition of PBK: -3.79%
[10]
  %-inhibition of SLK: -2.6%

## CCCS(=O)(=O)Nc1ccc(F)c(C(=O)c2c[nH]c3ncc(-c4ccc(Cl)cc4)cc23)c1F [vemurafenib]
[1]
  %-inhibition of MUSK: -0.285%
[2]
  %-inhibition of INSR: 17%
[3]
  %-inhibition of KIT(D816V): 17%
[4]
  %-inhibition of PDGFRα: 87%
[5]
  %-inhibition of PKR: -0.765%
[6]
  %-inhibition of FGFR3: 15%
[7]
  %-inhibition of MAPKAPK2: -16%
[8]
  %-inhibition of HIPK1: -4.72%
[9]
  %-inhibition of PBK: -12%
[10]
  %-inhibition of SLK: 43%
